Source: patent publication US20250205186A1, “USE OF CHLOROGENIC ACID IN PREPARING MEDICINE OR PHARMACEUTICAL COMPOSITION FOR PREVENTING OR TREATING PAIN” (SICHUAN JIUZHANG BIOLOGICAL SCIENCE AND TECHNOLOGY CO., LTD., priority 2019, published 2025)

What was measured:
Format in all cases: in vivo, rat
[1] = test system: NE; test: NE content in brain tissue by HPLC-EC in bone cancer pain rats; settings: for NE content in the brain tissue: after 15 days of administration
Protocol: (§1) 60 SD rats were randomly selected, and after anesthesia, a small 1 cm incision was made in the upper tibial skin. A 10 mL syringe needle was used to puncture and perforate, then a 10 μL syringe was inserted into the bone marrow cavity, and 3 μL cell suspension containing […] Walker rat breast cancer cells was slowly injected. The pinhole was sealed with bone wax, and the skin was sutured. After surgery, the rats were placed on a 37° C. hot plate for rewarming. After recovery, rats were returned to the cage for further breeding, to obtain the model group. In addition, 8 SD rats were randomly selected, and an equal volume of PBS solution was injected into the marrow cavity of the left upper tibia. The rest of the operations were the same as the model group, to obtain the sham operation group. The rats that had been successfully modeled were randomly divided into groups, eight rats for each group, that included high-dose chlorogenic acid group (80 mg/kg), middle-dose chlorogenic acid group (40 mg/kg), low-dose chlorogenic acid group (20 mg/kg), model negative group (N.S normal saline), and sham operation group (N.S normal saline). The rats were intraperitoneally injected with drugs for 15 days in a volume of 0.2 mL/10 g, once a day; the model-negative group and the sham operation group were given the same volume of normal saline. After the rats were sacrificed, the hypothalamus was quickly separated, homogenized in an ice bath with perchloric acid, and centrifuged. The supernatant was collected, and the contents of NE, DA, and 5-HT were determined by HPLC-EC method (Hou […], Wang Na, et al, Effects of progesterone on morphine-induced conditioned place preference and levels of monoamine transmitters in rat brain. Chinese Journal of Pharmacology, 2006, 22(8), 980-983).

[2] = test system: 5-HT; test: 5-HT content in brain tissue by HPLC-EC in bone cancer pain rats; settings: for 5-HT content in the brain tissue: after 15 days of administration
Protocol: as §1

[3] = test system: IL-1β; test: Serum IL-1β content by ELISA in bone cancer pain rats; settings: for Cytokines IL-1β content in serum: after 15 days of administration; for Serum level of IL-1β compared with the model-negative group: after 15 days
Protocol: (§2) 60 SD rats were randomly selected, and after anesthesia, a small 1 cm incision was made in the upper tibial skin. A 10 mL syringe needle was used to puncture and perforate, then a 10 μL syringe was inserted into the bone marrow cavity, and 3 μL cell suspension containing 3×10^3 Walker rat breast cancer cells was slowly injected. The pinhole was sealed with bone wax, and the skin was sutured. After surgery, the rats were placed on a 37° C. hot plate for rewarming. After recovery, rats were returned to the cage for further breeding, to obtain the model group. In addition, 8 SD rats were randomly selected, and an equal volume of PBS solution was injected into the marrow cavity of the left upper tibia. The rest of the operations were the same as the model group, to obtain the sham operation group. The rats that had been successfully modeled were randomly divided into groups, eight rats for each group, that included high-dose chlorogenic acid group (80 mg/kg), middle-dose chlorogenic acid group (40 mg/kg), low-dose chlorogenic acid group (20 mg/kg), model negative group (N.S normal saline), and sham operation group (N.S normal saline). The rats were intraperitoneally injected with drugs for 15 days in a volume of 0.2 mL/10 g, once a day; the model-negative group and the sham operation group were given the same volume of normal saline. After the last administration, blood was collected from the eyeballs of the rats, and the animals in each group were sacrificed by neck removal. The blood samples were allowed to stand at room temperature for 20 minutes and then centrifuged. The supernatant was collected and the contents of TNF-α, IL-1β, and IL-6 in the peripheral blood serum of the […] were determined by ELISA.

[4] = test system: IL-6; test: Serum IL-6 content by ELISA in bone cancer pain rats; settings: for Cytokines IL-6 content in serum: after 15 days of administration; for Serum level of IL-6 compared with the model-negative group: after 15 days
Protocol: as §2

Structure (SMILES): O=C(/C=C/c1ccc(O)c(O)c1)O[C@@H]1C[C@](O)(C(=O)O)C[C@@H](O)[C@H]1O [Chlorogenic acid]
- NE content in the brain tissue ([1]; 20 mg/kg ip once a day): 0.99 ± 0.18 nmol/g
- NE content in brain tissue compared with the model-negative group ([1]; 20 mg/kg, p<0.05): the difference was significant
- NE content in the brain tissue ([1]; 40 mg/kg ip once a day): 0.91 ± 0.15 nmol/g
- NE content in brain tissue compared with the model-negative group ([1]; 40 mg/kg, p<0.05): the difference was significant
- NE content in the brain tissue ([1]; 80 mg/kg ip once a day): 1.47 ± 0.26 nmol/g
- NE content in brain tissue compared with the model-negative group ([1]; 80 mg/kg, p>0.05): no significant difference
- 5-HT content in the brain tissue ([2]; 20 mg/kg ip once a day): 0.91 ± 0.15 nmol/g
- 5-HT content in brain tissue compared with the model-negative group ([2]; 20 mg/kg, p<0.05): the difference was significant
- 5-HT content in the brain tissue ([2]; 40 mg/kg ip once a day): 0.95 ± 0.19 nmol/g
- 5-HT content in brain tissue compared with the model-negative group ([2]; 40 mg/kg, p<0.05): the difference was significant
- 5-HT content in the brain tissue ([2]; 80 mg/kg ip once a day): 0.77 ± 0.11 nmol/g
- 5-HT content in brain tissue compared with the model-negative group ([2]; 80 mg/kg, p>0.05): no significant difference
- Cytokines IL-1β content in serum ([3]; 20 mg/kg ip once a day): 58.54 ± 8.23 ng/L
- Serum level of IL-1β compared with the model-negative group ([3]; 20 mg/kg, p<0.05): lower than those in the model-negative group
- Cytokines IL-1β content in serum ([3]; 40 mg/kg ip once a day): 52.71 ± 6.39 ng/L
- Serum level of IL-1β compared with the model-negative group ([3]; 40 mg/kg, p<0.05): lower than those in the model-negative group
- Cytokines IL-1β content in serum ([3]; 80 mg/kg ip once a day): 76.25 ± 4.62 ng/L
- Serum level of IL-1β compared with the model-negative group ([3]; 80 mg/kg): the difference was not significant
- Cytokines IL-6 content in serum ([4]; 20 mg/kg ip once a day): 84.09 ± 5.16 ng/L
- Serum level of IL-6 compared with the model-negative group ([4]; 20 mg/kg, p<0.05): lower than those in the model-negative group
- Cytokines IL-6 content in serum ([4]; 40 mg/kg ip once a day): 78.73 ± 6.39 ng/L
- Serum level of IL-6 compared with the model-negative group ([4]; 40 mg/kg, p<0.05): lower than those in the model-negative group
- Cytokines IL-6 content in serum ([4]; 80 mg/kg ip once a day): 98.82 ± 4.54 ng/L
- Serum level of IL-6 compared with the model-negative group ([4]; 80 mg/kg): the difference was not significant
